The source of these data is PubChem BioAssay (NCI).

The structures appear in SMILES notation. Values joined by “and” are separate entries in the source; they are usually repeats but may differ in a detail not shown here. Equal values may be shown once.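 Following 48 hours of exposure in 96-well plates, responses at five concentrations were used to interpolate endpoints linearly. Here, GI50 denotes the concentration required for 50% inhibition of growth. Definition used: TGI = concentration required for complete inhibition of growth.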 A value given as a limit tells only on which side of the number the result lay.

Some test systems named below: ACHN renal; SK-OV-3 ovarian; HOP-92 NSCLC; SNB-75 CNS; COLO 205 colon; CAKI-1 renal; UACC-257 melanoma; OVCAR-4 ovarian; SN12C renal; HT29 colon.
Assay in all cases: NCI tumour cell line growth inhibition, 48 h

Regarding `O=CNc1ccc2c(c1)C(=O)c1ccccc1-2`, the TGI in the assay with ACHN renal, with SK-OV-3 ovarian, in the assay with HOP-92 NSCLC, in the assay with SNB-75 CNS, in the assay with COLO 205 colon and in the assay on CAKI-1 renal was over 100 µM in each case. In addition, the TGI in the assay with UACC-257 melanoma, in the assay on OVCAR-4 ovarian, in the assay with SN12C renal and in the assay with HT29 colon was over 100 µM each time.
For the compound `CC1=C2C(=C[C@@](C)(CO)[C@@H]2O)C(=O)[C@](C)(O)C12CC2`, the results for the GI50 in the assay with ACHN renal and with CAKI-1 renal were 0.0189 µM and 0.178 µM, respectively. Moreover, the TGI in the assay on ACHN renal is 0.0878 µM; in the assay with SK-OV-3 ovarian it was 0.0302 µM and 0.0394 µM; in the assay with HOP-92 NSCLC, 0.061 µM; in the assay with SNB-75 CNS it was 0.0296 µM and 0.0123 µM; in the assay on COLO 205 colon, 0.0218 µM; in the assay on UACC-257 melanoma it was 0.0308 µM and 0.0229 µM. Besides, the TGI in the assay with OVCAR-4 ovarian was 0.0267 µM; with SN12C renal it was 0.112 µM and 0.119 µM; with HT29 colon it was 0.0286 µM.
Consider `COc1ccc(C)cc1-c1cc(Sc2ccccc2)c(-c2cc(C)ccc2OC)o1`, for which the TGI in the assay with ACHN renal, with SK-OV-3 ovarian, in the assay with HOP-92 NSCLC, in the assay with SNB-75 CNS, with COLO 205 colon and with CAKI-1 renal was over 31.6 µM throughout. Besides, the TGI in the assay with UACC-257 melanoma, with OVCAR-4 ovarian, in the assay on SN12C renal and in the assay with HT29 colon was over 31.6 µM throughout.
With `CC(=O)CC(OC(C)=O)C1=CCC2C(CC1C)OC(=O)C2C` (stereo unspecified), the TGI with ACHN renal, in the assay with SK-OV-3 ovarian, with HOP-92 NSCLC, in the assay with SNB-75 CNS, in the assay with COLO 205 colon and in the assay on CAKI-1 renal was over 100 µM each time. In addition, the TGI in the assay with UACC-257 melanoma, in the assay on OVCAR-4 ovarian, in the assay with SN12C renal and in the assay with HT29 colon was over 100 µM each time.
`CCCCCCCCCCn1cc[n+](C)c1`: the GI50 in the assay on ACHN renal was 3.38 µM; with SK-OV-3 ovarian, 2.62 µM; in the assay with HOP-92 NSCLC, 2.92 µM; with SNB-75 CNS, 2.69 µM; in the assay on COLO 205 colon, 1.7 µM; in the assay with CAKI-1 renal, 1.79 µM. Further, the GI50 with UACC-257 melanoma is 1.81 µM; with OVCAR-4 ovarian it was 1.31 µM; with SN12C renal it was 2.54 µM; with HT29 colon it was 2.23 µM. Further, the TGI in the assay with ACHN renal was over 49.2 µM; with SK-OV-3 ovarian it was 20.9 µM; in the assay with HOP-92 NSCLC, 22.6 µM; in the assay on SNB-75 CNS, 11.4 µM; with COLO 205 colon, 7.01 µM; with CAKI-1 renal, 23.5 µM. For the same compound, the TGI in the assay with UACC-257 melanoma is 9.92 µM; in the assay on OVCAR-4 ovarian, over 61.4 µM; with SN12C renal it was 9.71 µM; in the assay on HT29 colon, 19.2 µM.
On to `Oc1[nH]c2ccccc2c1N=Nc1nc(-c2ccc(Br)cc2)cs1`, for which the TGI with ACHN renal was 49.1 µM; in the assay with SK-OV-3 ovarian, 66.3 µM; with HOP-92 NSCLC it was 31.7 µM; with SNB-75 CNS, 46.6 µM; with COLO 205 colon, 79.1 µM; in the assay on CAKI-1 renal it was 39.9 µM. Further, the TGI with UACC-257 melanoma worked out at 66.1 µM; in the assay on OVCAR-4 ovarian it was 38.9 µM; in the assay with SN12C renal, 83.2 µM; in the assay with HT29 colon, 32.9 µM.
As for `Nc1n[nH]c2cccc(C#Cc3cccc(C(=O)Nc4ccc(CN5CCOCC5)c(C(F)(F)F)c4)c3)c12`, the GI50 in the assay on ACHN renal was 2.63 µM; with SK-OV-3 ovarian, 4 µM; with HOP-92 NSCLC, 1.12 µM; in the assay on SNB-75 CNS it was 3.21 µM; in the assay on COLO 205 colon, 1.35 µM; with CAKI-1 renal it was 3.2 µM. Besides, the GI50 in the assay with UACC-257 melanoma is 2.41 µM; in the assay with OVCAR-4 ovarian it was 2.15 µM; in the assay on SN12C renal, 2.48 µM; in the assay with HT29 colon, 1.89 µM. Also, the TGI was found to be 9.96 µM in the assay with ACHN renal; 17.5 µM in the assay on SK-OV-3 ovarian; 4.29 µM in the assay with HOP-92 NSCLC; 12.8 µM with SNB-75 CNS; 6.99 µM in the assay with COLO 205 colon; 11.4 µM with CAKI-1 renal. For the same compound, the TGI in the assay on UACC-257 melanoma was found to be 10.6 µM; with OVCAR-4 ovarian it was 6.88 µM; in the assay on SN12C renal, 9.48 µM; in the assay with HT29 colon, 12.2 µM.
As for `O=C(/C=C/c1ccc(O)cc1)c1ccc(O)cc1`, the TGI with ACHN renal is over 74.3 µM; with SK-OV-3 ovarian, over 100 µM; in the assay on HOP-92 NSCLC, 76 µM; in the assay with SNB-75 CNS, 51.7 µM; with COLO 205 colon, over 65.9 µM; in the assay on CAKI-1 renal it was 37.9 µM. The TGI is 74.7 µM in the assay with UACC-257 melanoma, over 100 µM in the assay with OVCAR-4 ovarian, 79 µM in the assay with SN12C renal and 48.5 µM in the assay with HT29 colon.
`Nc1ccc(C2=NNC(=O)Cc3cc4c(cc32)OCCO4)cc1Cl`: the GI50 with ACHN renal was 18.8 µM; with SK-OV-3 ovarian it was 8.1 µM; in the assay with HOP-92 NSCLC, 4.89 µM; in the assay with SNB-75 CNS, 2 µM; in the assay on COLO 205 colon, 2.63 µM; with CAKI-1 renal, 1.99 µM. Moreover, the GI50 in the assay on UACC-257 melanoma is 13.3 µM; in the assay with OVCAR-4 ovarian, 35.3 µM; with SN12C renal it was 14.9 µM; in the assay on HT29 colon, 2.11 µM. For the same compound, the TGI with ACHN renal was over 50 µM; in the assay on SK-OV-3 ovarian, over 50 µM; with HOP-92 NSCLC, 49 µM; with SNB-75 CNS, 27.9 µM; in the assay on COLO 205 colon, 17.5 µM; in the assay on CAKI-1 renal, over 50 µM. Also, the TGI in the assay with UACC-257 melanoma, in the assay on OVCAR-4 ovarian, in the assay on SN12C renal and in the assay on HT29 colon was over 50 µM throughout.
Turning to `O=C1CN(c2cccc(Cl)c2)C(=O)CN1CCN1CC(=O)N(c2cccc(Cl)c2)CC1=O`, the TGI with ACHN renal, with SK-OV-3 ovarian, with HOP-92 NSCLC, in the assay on SNB-75 CNS, with COLO 205 colon and with CAKI-1 renal was over 100 µM in each case. In addition, the TGI in the assay with UACC-257 melanoma, in the assay on OVCAR-4 ovarian, with SN12C renal and with HT29 colon was over 100 µM throughout.
For `O=C(O)c1nc2nc(Cl)c(Cl)nc2[nH]1`, the TGI with ACHN renal, with SK-OV-3 ovarian, in the assay with HOP-92 NSCLC, with SNB-75 CNS, with COLO 205 colon and with CAKI-1 renal was over 100 µM in each case. Moreover, the TGI in the assay with UACC-257 melanoma, in the assay on OVCAR-4 ovarian, in the assay with SN12C renal and in the assay with HT29 colon was over 100 µM each time.
Regarding `O=S(=O)(c1ccccc1)N1CCN(S(=O)(=O)c2ccccc2)c2ccccc21`, the TGI with ACHN renal, with SK-OV-3 ovarian, in the assay on HOP-92 NSCLC, in the assay with SNB-75 CNS, in the assay with COLO 205 colon and in the assay with CAKI-1 renal was over 100 µM in each case. Besides, the TGI in the assay with UACC-257 melanoma, in the assay on OVCAR-4 ovarian, in the assay with SN12C renal and with HT29 colon was over 100 µM each time.
For `CCOC(=S)SCC(=O)O`, the TGI in the assay with ACHN renal, in the assay with SK-OV-3 ovarian, in the assay on HOP-92 NSCLC, in the assay on SNB-75 CNS, in the assay on COLO 205 colon and in the assay with CAKI-1 renal was over 100 µM each time. The TGI in the assay with UACC-257 melanoma, in the assay with OVCAR-4 ovarian, in the assay with SN12C renal and with HT29 colon was over 100 µM each time.
For `COC[C@H]1Cn2cc(-c3nc(Nc4ccnn4C)ncc3C)nc2C(=O)N1Cc1ccc(F)c(F)c1`, the GI50 in the assay with ACHN renal is 12.6 µM; with SK-OV-3 ovarian, 35.9 µM; in the assay with HOP-92 NSCLC, 0.21 µM; in the assay with SNB-75 CNS it was 9.59 µM; in the assay with COLO 205 colon, 0.0203 µM; with CAKI-1 renal, 0.795 µM. The GI50 in the assay on UACC-257 melanoma is 0.0352 µM; with OVCAR-4 ovarian it was 17.8 µM; with SN12C renal, 11.1 µM; with HT29 colon, 0.0436 µM. For the same compound, the TGI in the assay on ACHN renal was over 100 µM; with SK-OV-3 ovarian, over 100 µM; with HOP-92 NSCLC, over 26.4 µM; in the assay with SNB-75 CNS it was over 100 µM; in the assay on COLO 205 colon it was over 100 µM; in the assay with CAKI-1 renal, over 100 µM. In addition, the TGI in the assay with UACC-257 melanoma, in the assay with OVCAR-4 ovarian, in the assay on SN12C renal and with HT29 colon was over 100 µM throughout.
Take `CC(C)(C)c1cc2c(O)c3cccc4c(=O)c5cccc6c5-c(c34)c2c(c1)c6=O`: the TGI in the assay with ACHN renal is over 100 µM; with SK-OV-3 ovarian, over 100 µM; in the assay on HOP-92 NSCLC it was 96.5 µM; in the assay with SNB-75 CNS, over 100 µM; with COLO 205 colon, over 100 µM; in the assay on CAKI-1 renal it was over 100 µM. The TGI in the assay with UACC-257 melanoma, in the assay with OVCAR-4 ovarian, in the assay with SN12C renal and in the assay on HT29 colon was over 100 µM throughout.
As to `CN(C)CC1CC/C(=C\c2ccc(O)cc2)C1=O` (stereo unspecified), the TGI in the assay on ACHN renal worked out at 10.7 µM; in the assay on SK-OV-3 ovarian, 32.3 µM; with HOP-92 NSCLC, 5.82 µM; with SNB-75 CNS it was 25.8 µM; with COLO 205 colon it was 3.77 µM; in the assay on CAKI-1 renal, 3.24 µM. For the same compound, the TGI with UACC-257 melanoma is 11.3 µM; with OVCAR-4 ovarian, 18.5 µM; in the assay with SN12C renal, 14 µM; in the assay with HT29 colon, 11.5 µM.
